Target: T1, RNR (RNR1:RNR2 1:1) (Homo sapiens, UniProt P23921)
T1 sequence (P23921 1-792): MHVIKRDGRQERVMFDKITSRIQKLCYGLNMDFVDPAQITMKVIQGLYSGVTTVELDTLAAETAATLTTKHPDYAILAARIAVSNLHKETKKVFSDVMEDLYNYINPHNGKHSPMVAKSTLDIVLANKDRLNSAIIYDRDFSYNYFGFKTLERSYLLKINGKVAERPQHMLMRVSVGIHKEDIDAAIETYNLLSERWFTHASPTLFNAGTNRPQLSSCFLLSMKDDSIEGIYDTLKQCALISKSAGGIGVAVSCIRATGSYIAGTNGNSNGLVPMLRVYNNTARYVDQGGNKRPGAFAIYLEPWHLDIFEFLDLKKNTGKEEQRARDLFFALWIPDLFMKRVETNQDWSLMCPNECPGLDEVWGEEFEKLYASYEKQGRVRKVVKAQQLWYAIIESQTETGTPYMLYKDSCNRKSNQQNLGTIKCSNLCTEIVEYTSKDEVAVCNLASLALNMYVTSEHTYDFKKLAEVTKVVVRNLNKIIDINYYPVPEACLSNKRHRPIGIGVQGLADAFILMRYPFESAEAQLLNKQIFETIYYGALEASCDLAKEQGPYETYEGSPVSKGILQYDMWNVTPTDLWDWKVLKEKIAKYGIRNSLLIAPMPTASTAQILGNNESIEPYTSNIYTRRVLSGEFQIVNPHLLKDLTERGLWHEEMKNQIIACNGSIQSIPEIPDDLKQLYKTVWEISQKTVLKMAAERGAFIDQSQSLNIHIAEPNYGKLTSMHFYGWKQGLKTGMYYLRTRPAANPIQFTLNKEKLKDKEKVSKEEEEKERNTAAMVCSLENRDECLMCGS
Assay: RNR enzyme activity, rapid-fire mass spectrometry (RFMS) assay
Format: biochemical
Details: RNR 50 nM, CDP 5 μM, ATP 1 mM, 37° C., 45 min, compounds screened up to 50 μM, read-out: RF/MS IC50
Experimental: A rapid-fire mass spectrometry (RFMS) assay was used to assess RNR enzyme activity using a 384 well plate and a robotic platform.
The plate layout included two validated reference compounds (Triapine (3-AP) and Hydroxyurea (HU)): • A dose response in duplicate; top concentration: 5 μM (3-AP) and 250 μM (HU), semi-log dilutions. • Spike wells in triplicate randomly spotted at four concentrations: • 250 μM, 100 μM, 30 μM and 2 μM for HU • 5 μM, 2 μM, 0.6 μM and 0.04 μM for 3-AP
First, the multidrop pipes were saturated for 30 minutes with enzymatic solution. Then 30 μL of Stop solution was distributed in column 24. Next, 15 μL of enzyme was distributed in column 1 to 24. Next, a pre-incubation step of 15 minutes at room temperature occurred, followed by distribution of 15 μL of substrate solution (column 1 to 24). Next, the plate was incubated for 45 minutes at 37° C. 30 μL of Stop solution was distributed to columns 1 to 23.
The final parameters for the enzyme reactions were: • Incubation: 37° C., 45 min • [CDP]: 5 μM; [ATP]: 1 mM; [NADPH]: No • [RNR] final: 50 nM with 1:1 (RNR1:RNR2) ratio • Final volume: 30 μL • Stop solution: 6% HCOOH containing 2 μM of 15

Row | Molecule | IC50
1 | 4-(3-azabicyclo[3.1.0]hexan-3-yl)-N-((1S,2R)-2-(6-fluoro-2,3-dimethylphenyl)-1-(5-oxo-4,5-dihydro-1,3,4-oxadiazol-2-yl)propyl)piperidine-1-sulfonamide [Example 105] | 1 to 10 µM
2 | Cc1ccc(F)c([C@@H](C)[C@H](NS(=O)(=O)N2CCCC(C(C)O)C2)c2n[nH]c(=O)o2)c1C (mixture of isomers) [Example 27, rac-N-((1R,2S)-2-(6-fluoro-2,3-dimethylphenyl)-1-(5-oxo-4,5-dihydro-1,3,4-oxadiazol-2-yl)propyl)-3-(1-hydroxyethyl)piperidine-1-sulfonamide] | 0.1 to 1 µM
3 | Cc1ccc(F)c([C@H](C)[C@H](NS(=O)(=O)N2CCCC(C(C)O)C2)c2n[nH]c(=O)o2)c1C (mixture of isomers) [Example 28, rac-N-((1R,2R)-2-(6-fluoro-2,3-dimethylphenyl)-1-(5-oxo-4,5-dihydro-1,3,4-oxadiazol-2-yl)propyl)-3-(1-hydroxyethyl)piperidine-1-sulfonamide] | 10 to 100 µM
4 | Cc1ccc(F)c([C@@H](C)[C@H](NS(=O)(=O)N2CCC(F)(F)CC2)c2n[nH]c(=O)o2)c1C [Example 1, 4,4-difluoro-N-((1S,2R)-2-(6-fluoro-2,3-dimethylphenyl)-1-(5-oxo-4,5-dihydro-1,3,4-oxadiazol-2-yl)propyl)piperidine-1-sulfonamide] | 0.1 to 1 µM
5 | Cc1ccc(F)c([C@H](C)[C@H](NS(=O)(=O)N2CCC(F)(F)CC2)c2n[nH]c(=O)o2)c1C [Example 2, 4,4-difluoro-N-[(1S,2S)-2-(6-fluoro-2,3-dimethylphenyl)-1-(5-oxo-4H-1,3,4-oxadiazol-2-yl)propyl]piperidine-1-sulfonamide] | 10 to 100 µM
6 | Cc1ccc(F)c(C(C)[C@H](NS(=O)(=O)N2CCCCC2C#N)c2n[nH]c(=O)o2)c1C (stereo partly drawn) [Example 3, 2-cyano-N-[(1S)-2-(6-fluoro-2,3-dimethylphenyl)-1-(5-oxo-4H-1,3,4-oxadiazol-2-yl)propyl]piperidine-1-sulfonamide] | 1 to 10 µM
7 | Cc1ccc(F)c([C@@H](C)[C@H](NS(=O)(=O)N2C[C@H]3CCC[C@H]3C2)c2n[nH]c(=O)o2)c1C [Example 4, (3aR,6aS)-N-((1S,2R)-2-(6-Fluoro-2,3-dimethylphenyl)-1-(5-oxo-4,5-dihydro-1,3,4-oxadiazol-2-yl)propyl)hexahydrocyclopenta[c]pyrrole-2(1H)-sulfonamide] | 0.1 to 1 µM
8 | Cc1ccc(F)c([C@@H](C)[C@H](NS(=O)(=O)N2CCC(Cl)CC2)c2n[nH]c(=O)o2)c1C [Example 5, 4-chloro-N-((1S,2R)-2-(6-fluoro-2,3-dimethylphenyl)-1-(5-oxo-4,5-dihydro-1,3,4-oxadiazol-2-yl)propyl)piperidine-1-sulfonamide] | 0.1 to 1 µM
9 | Cc1ccc(F)c([C@H](C)[C@H](NS(=O)(=O)N2CCC(Cl)CC2)c2n[nH]c(=O)o2)c1C [Example 6, 4-chloro-N-((1S,2S)-2-(6-fluoro-2,3-dimethylphenyl)-1-(5-oxo-4,5-dihydro-1,3,4-oxadiazol-2-yl)propyl)piperidine-1-sulfonamide] | 1 to 10 µM
10 | Cc1ccc(F)c([C@@H](C)[C@H](NS(=O)(=O)N2CC3CCCC(C3)C2)c2n[nH]c(=O)o2)c1C [Example 7, N-((1S,2R)-2-(6-fluoro-2,3-dimethylphenyl)-1-(5-oxo-4,5-dihydro-1,3,4-oxadiazol-2-yl)propyl)-3-azabicyclo[3.3.1]nonane-3-sulfonamide] | 10 to 100 µM
11 | Cc1ccc(F)c([C@@H](C)[C@H](NS(=O)(=O)N2CCC(C)CC2C)c2n[nH]c(=O)o2)c1C (stereo partly drawn) [Example 8, N-((1S,2R)-2-(6-fluoro-2,3-dimethylphenyl)-1-(5-oxo-4,5-dihydro-1,3,4-oxadiazol-2-yl)propyl)-2,4-dimethylpiperidine-1-sulfonamide] | 1 to 10 µM
12 | Cc1ccc(F)c([C@@H](C)[C@H](NS(=O)(=O)N2CCC(C3CCCCC3)CC2)c2n[nH]c(=O)o2)c1C [Example 9, 4-cyclohexyl-N-((1S,2R)-2-(6-fluoro-2,3-dimethylphenyl)-1-(5-oxo-4,5-dihydro-1,3,4-oxadiazol-2-yl)propyl)piperidine-1-sulfonamide] | 10 to 100 µM
13 | Cc1ccc(F)c([C@H](C)[C@H](NS(=O)(=O)N2CCC(C3CCCCC3)CC2)c2n[nH]c(=O)o2)c1C [Example 10, 4-cyclohexyl-N-((1S,2S)-2-(6-fluoro-2,3-dimethylphenyl)-1-(5-oxo-4,5-dihydro-1,3,4-oxadiazol-2-yl)propyl)piperidine-1-sulfonamide] | 10 to 100 µM
14 | Cc1ccc(F)c([C@@H](C)[C@H](NS(=O)(=O)N2CCCC[C@@H]2C(N)=O)c2n[nH]c(=O)o2)c1C [Example 12, (R)-1-(N-((1S,2R)-2-(6-fluoro-2,3-dimethylphenyl)-1-(5-oxo-4,5-dihydro-1,3,4-oxadiazol-2-yl)propyl)sulfamoyl)piperidine-2-carboxamide] | 1 to 10 µM
15 | Cc1ccc(F)c([C@@H](C)[C@H](NS(=O)(=O)N2CCCCC2C(=O)O)c2n[nH]c(=O)o2)c1C (stereo partly drawn) [Example 13, 1-(N-((1S,2R)-2-(6-fluoro-2,3-dimethylphenyl)-1-(5-oxo-4,5-dihydro-1,3,4-oxadiazol-2-yl)propyl)sulfamoyl)piperidine-2-carboxylic acid] | 10 to 100 µM
16 | Cc1ccc(F)c([C@H](C)[C@H](NS(=O)(=O)N2CCCCC2C(=O)O)c2n[nH]c(=O)o2)c1C (stereo partly drawn) [Example 14, 1-(N-((1S,2S)-2-(6-fluoro-2,3-dimethylphenyl)-1-(5-oxo-4,5-dihydro-1,3,4-oxadiazol-2-yl)propyl)sulfamoyl)piperidine-2-carboxylic acid] | 10 to 100 µM
17 | Cc1ccc(F)c([C@@H](C)[C@H](NS(=O)(=O)N2CCCCC2CC(N)=O)c2n[nH]c(=O)o2)c1C (stereo partly drawn) [Example 15, 2-(1-(N-((1S,2R)-2-(6-fluoro-2,3-dimethylphenyl)-1-(5-oxo-4,5-dihydro-1,3,4-oxadiazol-2-yl)propyl)sulfamoyl)piperidin-2-yl)acetamide] | 0.1 to 1 µM
18 | Cc1ccc(F)c([C@H](C)[C@H](NS(=O)(=O)N2CCCCC2CC(N)=O)c2n[nH]c(=O)o2)c1C (stereo partly drawn) [Example 16, 2-(1-(N-((1S,2S)-2-(6-fluoro-2,3-dimethylphenyl)-1-(5-oxo-4,5-dihydro-1,3,4-oxadiazol-2-yl)propyl)sulfamoyl)piperidin-2-yl)acetamide] | 1 to 10 µM
19 | CC(=O)[C@@H]1CCCCN1S(=O)(=O)N[C@H](c1n[nH]c(=O)o1)[C@H](C)c1c(F)ccc(C)c1C [Example 17, (S)-2-acetyl-N-((1S,2R)-2-(6-fluoro-2,3-dimethylphenyl)-1-(5-oxo-4,5-dihydro-1,3,4-oxadiazol-2-yl)propyl)piperidine-1-sulfonamide] | 10 to 100 µM
20 | CC(=O)[C@@H]1CCCCN1S(=O)(=O)N[C@H](c1n[nH]c(=O)o1)[C@@H](C)c1c(F)ccc(C)c1C [Example 18, (S)-2-acetyl-N-((1S,2S)-2-(6-fluoro-2,3-dimethylphenyl)-1-(5-oxo-4,5-dihydro-1,3,4-oxadiazol-2-yl)propyl)piperidine-1-sulfonamide] | 1 to 10 µM
21 | CC(=O)[C@H]1CCCCN1S(=O)(=O)N[C@H](c1n[nH]c(=O)o1)[C@H](C)c1c(F)ccc(C)c1C [Example 19, (R)-2-acetyl-N-((1S,2R)-2-(6-fluoro-2,3-dimethylphenyl)-1-(5-oxo-4,5-dihydro-1,3,4-oxadiazol-2-yl)propyl)piperidine-1-sulfonamide] | 1 to 10 µM
22 | Cc1ccc(F)c([C@@H](C)[C@H](NS(=O)(=O)N2CCC[C@](C)(O)C2)c2n[nH]c(=O)o2)c1C [Example 20, (S)-N-((1S,2R)-2-(6-fluoro-2,3-dimethylphenyl)-1-(5-oxo-4,5-dihydro-1,3,4-oxadiazol-2-yl)propyl)-3-hydroxy-3-methylpiperidine-1-sulfonamide] | 1 to 10 µM
23 | Cc1ccc(F)c([C@H](C)[C@H](NS(=O)(=O)N2CCC[C@](C)(O)C2)c2n[nH]c(=O)o2)c1C [Example 21, (S)-N-((1S,2S)-2-(6-fluoro-2,3-dimethylphenyl)-1-(5-oxo-4,5-dihydro-1,3,4-oxadiazol-2-yl)propyl)-3-hydroxy-3-methylpiperidine-1-sulfonamide] | 1 to 10 µM
